Reference: patent publication US20140178898A1, “Method for Detecting Fat-Reducing Compounds” (National Central University, priority 2012, published 2014)

Experiments:
Type in all cases: cell-based
[1] = test system: glucose transporter 4 (GLUT4); experiment: Western blotting of GLUT4 protein in adipocyte fractions (translocation); details: for GLUT4 protein levels in the plasma membrane of adipocytes: IGF at 10 nM (FIGS. 5B, 6B); for GLUT4 expression levels in the low-density microsome: IGF at 10 nM (FIGS. 5C, 6C)
Protocol: (§1) In the first step (S1), which provides a clone of adipocytes to be cultured on a culture dish, the adipocytes are 3T3-L1 adipocytes (American Type Culture Collection, Manassas, Va.). 3T3-L1 adipocytes are differentiated from 3T3-L1 preadipocytes. To obtain the adipocytes, preadipocytes are seeded at a number of 6×10^4 cells per well on a sterile 12-well plate. After 3 and 5 days of the plating, the medium is changed and replaced with a new medium containing a differentiation agent, respectively. Day 0 of differentiating cells is set at the day when the differentiating agent is added in the beginning. The medium is the Dulbecco's Modified Eagle's Medium (DMEM) containing 10% fetal bovine serum (FBS), 100 U/ml of penicillin, and 100 μg/ml streptomycin. The differentiation agent is a cocktail solution containing a final concentration of 0.5 mM 3-Isobutyl-1-methylxanthine (IBMX), 5 μg/ml insulin, and 1 μM dexamethasone (DEX). After the 2-day incubation of the differentiation agent, the medium is changed to DMEM containing 10% FBS and 5 μg/ml insulin for an additional 4 days, and it is replaced with a new medium every 2 days. Day 6 differentiating cells are grown in DMEM containing 10% FBS for an additional 4 days. The medium is changed every 2 days. A total of 10 days is used for the process of differentiation to obtain the differentiated adipocytes and the cells are used for later experiments.
(§2) In the fourth step (S4), which collects the adipocytes for a detection of the expression level of at least one specific protein to be a reference value (i.e. an indicator) for reducing fat or for decreasing the glucose transport by the test compound, the specific proteins are glucose transporter 1 (GLUT1) and glucose transporter 4 (GLUT4) proteins (FIGS. 5 and 6). Levels of GLUT1 and GLUT4 protein expression in the total lysate, plasma membrane, and low-density microsome are analyzed by Western blotting. FIGS. 5A, 5B and 5C are presented when the culture medium is added with or without IGF-I; whereas, in FIGS. 6A, 6B and 6C, IGF-II is added to the culture medium.

3T3-L1 adipocytes [2] = experiment: 2-deoxyglucose (2-DOG) uptake assay, IGF-II-stimulated glucose uptake
Protocol: (§3) In the first step (S1), which provides a clone of adipocytes to be cultured on a culture dish, the adipocytes are 3T3-L1 adipocytes (American Type Culture Collection, Manassas, Va.). 3T3-L1 adipocytes are differentiated from 3T3-L1 preadipocytes. To obtain the adipocytes, preadipocytes are seeded at a number of 6×10^4 cells per well on a sterile 12-well plate. After 3 and 5 days of the plating, the medium is changed and replaced with a new medium containing a differentiation agent, respectively. Day 0 of differentiating cells is set at the day when the differentiating agent is added in the beginning. […]
The first example of the present invention is to show a use of 2-deoxyglucose uptake assay for detecting the transportation activity of glucose transporter protein in the adipocytes (FIG. 2). […] Then, 500 μl of RadioImmunoPrecipitation Assay (RIPA) buffer is added for fracturing the cells; 450 μl of cell solution is collected to evenly mix with 4 ml of scintillation liquid in a vial for a detection of radioactivity through a β-counter.
(§4) This invention provides a second example for clarifying the time course effects of EGCG on the IGF-stimulated glucose uptake in adipocytes (FIG. 3). […] After the incubation, the radioactivity is measured to indicate the transportation activity of glucose transporter protein in the adipocytes. […]

3T3-L1 adipocytes [3] = experiment: 2-deoxyglucose (2-DOG) uptake assay, IGF-I-stimulated glucose uptake; details: for IGF-I-stimulated increases in levels of adipocyte glucose uptake: then 10 nM IGF-I 10 minutes (FIG. 2A)
Protocol: as §1
(§5) The first example of the present invention is to show a use of 2-deoxyglucose uptake assay for detecting the transportation activity of glucose transporter protein in the adipocytes (FIG. 2). This purpose is also to clarify the effect of different concentrations of EGCG on the IGF-I-induced and IGF-II-induced glucose uptake. At the first, the different concentrations of EGCG are added into the adipocytes, such as 1, 2, 5, 10, 20 and 50 μM. The duration of the EGCG pretreatment is defined as a first time and it is 120 minutes, wherein the first time period can range from 30 to 120 minutes, but it is not limited thereto. Then, the exposed time of 10 minutes to 10 nM IGF-I or 10 nM IGF-II is defined as a second time, wherein the second time can be 5 minutes shorter or last for 30 minutes, but it is not limited thereto. […] Then, 500 μl of RadioImmunoPrecipitation Assay (RIPA) buffer is added for fracturing the cells; 450 μl of cell solution is collected to evenly mix with 4 ml of scintillation liquid in a vial for a detection of radioactivity through a β-counter.
as §4

3T3-L1 adipocytes [4] = experiment: 2-deoxyglucose (2-DOG) uptake assay, EGCG alone
Protocol: as §1, §5
This invention provides a second example for clarifying the time course effects of EGCG on the IGF-stimulated glucose uptake in adipocytes (FIG. 3). […] After the incubation, the radioactivity is measured to indicate the transportation activity of glucose transporter protein in the adipocytes.

[5] = test system: glucose transporter 1 (GLUT1); experiment: Western blotting of GLUT1 protein in adipocyte fractions; details: EGCG in the presence and absence of IGF-I and IGF-II (FIGS. 5A, 6A)
Protocol: as §3, with “beginning. The medium is the Dulbecco's Modified Eagle's Medium (DMEM) containing 10% fetal bovine serum (FBS), 100 U/ml of penicillin, and 100 μg/ml streptomycin.” for “beginning.”
as §2, with “FIGS. 5A, 5B and 5C are presented when the culture medium is added with or without IGF-I; whereas, in FIGS. 6A, 6B and 6C, IGF-II is added to the culture medium.” left out

(−)-epigallocatechin gallate [EGCG]
levels of GLUT4 protein in the total lysate of the adipocytes ([1]; EGCG in the presence and absence of IGF-I and IGF-II (FIGS. 5A, 6A)): not altered | IGF-increased levels of GLUT-4 protein in the plasma membrane ([1]; EGCG in the presence of IGF-I (FIG. 5B)): inhibits | IGF-decreased levels of GLUT-4 protein in the low-density microsome ([1]; EGCG in the presence of IGF-I (FIG. 5C)): blocked | IGF-increased levels of GLUT-4 protein in the plasma membrane ([1]; EGCG in the presence of IGF-II (FIG. 6B)): inhibits | IGF-decreased levels of GLUT-4 protein in the low-density microsome ([1]; EGCG in the presence of IGF-II (FIG. 6C)): blocked | translocation of GLUT4 from the cytosol to plasma membrane of the adipocytes induced by IGF treatment ([1]; FIGS. 5B, 5C, 6B and 6C): inhibited | GLUT-4 protein levels in the low-density microsome ([1]; pretreatment with EGCG alone): does not change | GLUT-4 protein levels in the plasma membrane ([1]; pretreatment with EGCG alone): does not change | increase in the level of adipocyte glucose uptake induced by IGF-II (3T3-L1 adipocytes [2]; 0.5, 1, 2, and 4 hours after 20 μM EGCG pretreatment, 10 nM IGF-II): significantly reduced | IGF-II-increased levels of glucose uptake in adipocytes (3T3-L1 adipocytes [2]; EGCG at 10, 20, and 50 μM, 2-hour pretreatment, 10 nM IGF-II (FIG. 2B)): suppress | IGF-I-increased levels of adipocyte glucose uptake (3T3-L1 adipocytes [3]; 20 μM EGCG pretreatment for 0.5 hours, suppressive effect lasts for 4 hours, 10 nM IGF-I): inhibits | IGF-I-increased level of adipocyte glucose uptake (3T3-L1 adipocytes [3]; 20 μM EGCG, 2-hour treatment, 10 nM IGF-I): decline to the corresponding level of glucose uptake to the control | IGF-I-stimulated increases in levels of adipocyte glucose uptake (3T3-L1 adipocytes [3]; 2-hour pretreatment with 1, 2, or 5 μM EGCG): not | IGF-I-stimulated increases in levels of adipocyte glucose uptake (3T3-L1 adipocytes [3]; 2-hour pretreatment with 10, 20, and 50 μM EGCG): suppresses | level of adipocyte glucose uptake (3T3-L1 adipocytes [4]; 20 μM EGCG alone, 0.5, 1, or 2 hours (FIG. 3A)): not | level of adipocyte glucose uptake (3T3-L1 adipocytes [4]; 20 μM EGCG alone, 4 hours (FIG. 3A)): significantly altered | adipocyte glucose uptake (3T3-L1 adipocytes [4]; EGCG alone at 50 μM, 2 hours (FIG. 2A)): significantly decreased | glucose uptake in the adipocytes (3T3-L1 adipocytes [4]; EGCG alone at 1, 2, 5, 10, and 20 μM, 2 hours of treatment (FIG. 2A)): does not alter | levels of GLUT1 protein in the total lysate of the adipocytes [5]: not altered

IGF-I: insulin-like growth factor I, added to adipocytes at 10 nM
GLUT4 protein levels in the plasma membrane of adipocytes [1]: significantly increase | GLUT4 expression levels in the low-density microsome [1]: decrease

IGF-II: insulin-like growth factor II, added to adipocytes at 10 nM
GLUT4 protein levels in the plasma membrane of adipocytes [1]: significantly increase | GLUT4 expression levels in the low-density microsome [1]: decrease
